Measurements taken from the supplement of paper PMC12137928.
Where a name gives a salt, the structure may show the parent alone.

Tested on: HCT116
Conditions: 72 h
In short: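 HCT116 cells were seeded at 250 per well in 1536-well plates and left 5 h to attach. CellTiter-Glo luminescence was scaled to vehicle (0%) and positive control (-100%), then pattern-corrected. IC50 and maximal efficacy came from four-parameter Hill fits.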

| SMILES | IC50 cell viability (ICRF193 0 nM) | IC50 cell viability (ICRF193 200 nM) |
| --- | --- | --- |
| COc1ccc(CNc2nc(N3CCC[C@H]3CO)ncc2C(=O)NCc2ncccn2)cc1Cl [Avanafil] | > 45.8 µM | > 45.8 µM |
| NC(=O)[C@@H]1CC[C@@H]2CN1C(=O)N2OS(=O)(=O)O [Avibactam sodium] | > 45.8 µM | > 45.8 µM |
| COc1ccc(C(=O)CC(=O)c2ccc(C(C)(C)C)cc2)cc1 [Avobenzone] | > 45.8 µM | > 45.8 µM |
| CCCC1C(=O)N2C(N(C)C)=Nc3ccc(C)cc3N2C1=O (centres undefined) [Azapropazone] | > 45.8 µM | > 45.8 µM |
| CN1CCC(=C2c3ccccc3CCc3cccnc32)CC1 [Azatadine] | > 45.8 µM | > 45.8 µM |
| CCOc1nc2cccc(C(=O)O)c2n1Cc1ccc(-c2ccccc2-c2noc(=O)[nH]2)cc1 [Azilsartan (TAK-536)] | > 45.8 µM | > 45.8 µM |
| CCOc1nc2cccc(C(=O)OCc3oc(=O)oc3C)c2n1Cc1ccc(-c2ccccc2-c2noc(=O)[nH]2)cc1 [Azilsartan Medoxomil] | > 45.8 µM | > 45.8 µM |
| NS(=O)(=O)c1cc(-c2nnn[nH]2)c(NCc2cccs2)cc1Cl [Azosemide] | > 45.8 µM | > 45.8 µM |
| C[C@H]1[C@H](NC(=O)/C(=N\OC(C)(C)C(=O)O)c2csc(N)n2)C(=O)N1S(=O)(=O)O [Aztreonam] | > 45.8 µM | > 45.8 µM |
| CCCCC(CC)COc1ccc(-c2nc(-c3ccc(OC)cc3)nc(-c3ccc(OCC(CC)CCCC)cc3O)n2)c(O)c1 (centres undefined) [BEMOTRIZINOL] | > 45.8 µM | > 45.8 µM |
| O=C(OCc1ccccc1)c1cccnc1 [BENZYL NICOTINATE] | > 45.8 µM | > 45.8 µM |
| O=C(OCCO)c1ccccc1O [BETA-HYDROXYETHYL SALICYLATE] | > 45.8 µM | > 45.8 µM |
| CCC(=O)OCC(=O)[C@@]1(OC(=O)CC)[C@@H](C)C[C@H]2[C@@H]3CCC4=CC(=O)C=C[C@]4(C)[C@@]3(F)[C@@H](O)C[C@@]21C [BETAMETHASONE 17,21-DIPROPIONATE] | > 45.8 µM | > 45.8 µM |
| CCCCCCOC(=O)NC(=N)c1ccc(NCc2nc3cc(C(=O)N(CCC(=O)OCC)c4ccccn4)ccc3n2C)cc1 [BIBR-1048] | > 45.8 µM | > 45.8 µM |
| CC(O)(CS(=O)(=O)c1ccc(F)cc1)C(=O)Nc1ccc(C#N)c(C(F)(F)F)c1 (centres undefined) [BICALUTAMIDE] | > 45.8 µM | > 45.8 µM |
| CC1(C)C2CCC1(C)C(O)C2 (centres undefined) [BORNEOL] | > 45.8 µM | > 45.8 µM |
| CC(=O)OC1CC2CCC1(C)C2(C)C (centres undefined) [BORNYL ACETATE] | > 45.8 µM | > 45.8 µM |
| CC(C)(C)NCC(O)COc1ccccc1C#N (centres undefined) [BUNITROLOL] | > 45.8 µM | > 45.8 µM |
| CCOC(=O)OC(C)OC(=O)[C@@H]1N2C(=O)[C@@H](NC(=O)[C@H](N)c3ccccc3)[C@H]2SC1(C)C (some centres undefined) [Bacampicillin hydrochloride] | > 45.8 µM | > 45.8 µM |
| CC[C@H](C)[C@H](N)C1=N[C@H](C(=O)N[C@@H](CC(C)C)C(=O)N[C@H](CCC(=O)O)C(=O)N[C@H](C(=O)N[C@H]2CCCCNC(=O)[C@H](CC(N)=O)NC(=O)[C@@H](CC(=O)O)NC(=O)[C@H](Cc3cnc[nH]3)NC(=O)[C@@H](Cc3ccccc3)NC(=O)[C@H]([C@@H](C)CC)NC(=O)[C@@H](CCCN)NC2=O)[C@@H](C)CC)CS1 [Bacitracin] | > 45.8 µM | > 45.8 µM |
| NCC(CC(=O)O)c1ccc(Cl)cc1 (centres undefined) [Baclofen] | > 45.8 µM | > 45.8 µM |
| CNC1CCCN(c2c(F)cc3c(=O)c(C(=O)O)cn(C4CC4)c3c2OC)C1 (centres undefined) [Balofloxacin] | > 45.8 µM | > 45.8 µM |
| O=C(O)CCNC(=O)c1ccc(/N=N/c2ccc(O)c(C(=O)O)c2)cc1 [Balsalazide disodium] | > 45.8 µM | > 45.8 µM |
| CN(C)C(=O)Oc1cc(OC(=O)N(C)C)cc(C(O)CNC(C)(C)C)c1 (centres undefined) [Bambuterol hydrochloride] | > 45.8 µM | > 45.8 µM |

| SMILES | IC50 cell viability (ICRF193 0 nM) | IC50 cell viability (ICRF193 200 nM) |
| --- | --- | --- |
| CCCCNCC(O)c1ccc(O)cc1 (centres undefined) [Bamethan] | > 45.8 µM | > 45.8 µM |
| COc1nc2ccc(Br)cc2cc1[C@@H](c1ccccc1)[C@@](O)(CCN(C)C)c1cccc2ccccc12 [Bedaquiline (TMC-207)] | > 45.8 µM | > 45.8 µM |
| CC(=O)c1cc2cccc(OCC(O)CNC(C)C)c2o1 (centres undefined) [Befunolol] | > 45.8 µM | > 45.8 µM |
| CCC1(C)CC(=O)NC(=O)C1 [Bemegride] | > 45.8 µM | > 45.8 µM |
| CCOC(=O)[C@H](CCc1ccccc1)N[C@H]1CCc2ccccc2N(CC(=O)O)C1=O [Benazepril] | > 45.8 µM | > 45.8 µM |
| CN(C)CCCOC1(Cc2ccccc2)CCCCCC1 [Bencyclane] | > 45.8 µM | > 45.8 µM |
| Cn1c(CCCC(=O)O)nc2cc(N(CCCl)CCCl)ccc21 [Bendamustine] | > 45.8 µM | > 45.8 µM |
| O=C(O)COc1nn(Cc2ccccc2)c2ccccc12 [Bendazac sodium] | > 45.8 µM | > 45.8 µM |
| C/C(=C(\CCOP(=O)(O)O)SC(=O)c1ccccc1)N(C=O)Cc1cnc(C)nc1N [Benfotiamine] | > 45.8 µM | > 45.8 µM |
| CC(=O)Nc1ccc(OC(=O)c2ccccc2OC(C)=O)cc1 [Benorylate] | > 45.8 µM | > 45.8 µM |
| CCCCOc1cc(C(=O)OCCN(CC)CC)ccc1N [Benoxinate hydrochloride] | > 45.8 µM | > 45.8 µM |
| O=C(CCCN1CCC(n2c(=O)[nH]c3ccccc32)CC1)c1ccc(F)cc1 [Benperidol] | > 45.8 µM | > 45.8 µM |
| NC(CO)C(=O)NNCc1ccc(O)c(O)c1O (centres undefined) [Benserazide] | > 45.8 µM | > 45.8 µM |
| O=C(O)c1ccc(NC(=O)[C@H](Cc2ccc(O)cc2)NC(=O)c2ccccc2)cc1 [Bentiromide sodium] | > 45.8 µM | > 45.8 µM |
| CC[N+](C)(CC)CCOC(=O)C(O)(c1ccccc1)c1ccccc1 [Benzactyzine methobromide] | > 45.8 µM | > 45.8 µM |
| CCc1oc2ccccc2c1C(=O)c1cc(Br)c(O)c(Br)c1 [Benzbromarone] | > 45.8 µM | > 45.8 µM |
| O=S(=O)(O)c1ccccc1 [Benzene sulfonic acid] | > 45.8 µM | > 45.8 µM |
| O=C(Cn1ccnc1[N+](=O)[O-])NCc1ccccc1 [Benznidazole] | > 45.8 µM | > 45.8 µM |
| CCOC(=O)c1ccc(N)cc1 [Benzocaine] | > 45.8 µM | > 45.8 µM |
| O=C(c1ccccc1)C(O)c1ccccc1 (centres undefined) [Benzoin] | > 45.8 µM | > 45.8 µM |
| CCCCNc1ccc(C(=O)OCCOCCOCCOCCOCCOCCOCCOCCOCCOC)cc1 [Benzonatate] | > 45.8 µM | > 45.8 µM |
| c1ccc2scnc2c1 [Benzothiazole] | > 45.8 µM | > 45.8 µM |
| O=C(OOC(=O)c1ccccc1)c1ccccc1 [Benzoyl peroxide] | > 45.8 µM | > 45.8 µM |
